Paper PMC5797143, “Epigenetic modulation of inflammation and synaptic plasticity promotes resilience against stress in mice” (Nature Communications, 2018)
Like-named read-outs stand apart in the source and are kept apart here.

Legend:
[1] = In vivo safety: plasma ALP, AST, ALT, BUN; design: species or system mouse; details: 2 weeks, all doses tested
Experimental: We then initiated dose response and safety studies in mice to determine testing dosages and safety of DHCA and Mal-gluc. C57BL/6 mice were treated with either DHCA (doses ranging from 50 µg to 50 mg/kg-BW/day) or Mal-gluc (doses ranging from 50 ng to 5 mg/kg-BW/day) for 2 weeks to simulate long-term administration. Mice treated with DHCA were challenged with intraperitoneal (i.p.) injection of 0.4 mg/kg-BW LPS and plasma levels of IL-6 were measured 6 h post injection. […] Following common discovery-stage practices, we measured the plasma levels of alkaline phosphatase (ALP), aspartate aminotransferase (AST), and alanine aminotransferase (ALT) for liver function and blood urea nitrogen (BUN) for renal function.
Male C57BL/6 J mice (8-week-old) were placed on a polyphenol-free AIN-93M diet and treated with various doses of DHCA (vehicle, 50 µg, 500 µg, 5 mg, and 50 mg/kg-BW/day), delivered through their drinking water for two weeks. Animals were then sacrificed and plasma was collected for routine biochemistry panel analysis including ALP, ALT, and AST for liver function and blood urea nitrogen (BUN) content for kidney function. A separate group of mice was similarly treated and challenged with an i.p. injection of 0.4 mg/kg body weight LPS and plasma was collected 6 h post injection for IL-6 analysis. […]

[2] = Plasma stability, mouse plasma; assay type: in vitro ADME; details: 37 °C
Experimental: (§1) Compound stability in mouse and human plasma and in mouse brain homogenate were conducted, [45]. Specifically, Mal-gluc or DHCA was incubated in duplicate with plasma at 37 °C and samples were taken at various time points and mixed with three volumes of ice-cold Stop Solution (methanol containing propranolol, diclofenac, or other internal standard). Samples were centrifuged to remove precipitated protein, and the supernatants were analyzed by LC/MS/MS to quantitate for remaining test compound. Data are converted to percentage remaining by dividing by the time zero concentration value. Data are fit to a first-order decay model to determine half-life. Plasma protein binding were conducted using both mouse and human plasma.

CYP2B6 = biological target: T1, CYP2B6 (Homo sapiens, UniProt P20813); assay: CYP inhibition in human liver microsomes; assay type: in vitro ADME; details: read-out: CPY450 inhibition (IC50), CYP2B6
T1 construct: from tissue; host or cells: human liver microsomes
Experimental: (§2) CYP inhibition was tested in isolated microsomes for CYP2D6, CYP3A4, CYP1A2, CYP2C9, CYP2C19, CYP2C8, and CYP2B6[66]. Briefly, increasing concentrations of Mal-gluc or DHCA were incubated with human liver microsomes (HLM) in the presence of 2 mM NADPH in 100 mM potassium phosphate (pH 7.4) containing 5 mM magnesium chloride and a specific probe substrate for different CYPs: tacrine (CYP1A2), amodiaquine (CYP2C8), tolbutamide (CYP2C9), S-mephenytoin (CYP2C19), dextromethorphan (CYP2D6), midazolam/testosterone (CYP3A4/5), or bupropion (CYP2B6). CYP-specific inhibitors were included alongside the test compound as a positive control, including α-naphthoflavone (CYP1A2), quercetin (CYP2C8), ketoconazole (CYP3A4/5), quinidine (CYP2D6), sulfaphenazole (CYP2C9), and ticlopidine (CYP2C19, CYP2B6). After incubation at 37 °C, the reactions were terminated by addition of a methanol-containing internal standard (propranolol) for analytical quantification. The quenched samples were then incubated at 4 °C for 10 min and centrifuged at 4 °C for 10 min. The supernatant was removed and the probe substrate metabolite was analyzed by LC-MS/MS (Agilent Technologies Triple Quad LC-MS/MS).

CYP2C8 = biological target: T2, CYP2C8 (Homo sapiens, UniProt P10632); assay: CYP inhibition in human liver microsomes; assay type: in vitro ADME; details: read-out: CPY450 inhibition (IC50), CYP2C8
T2 construct: from tissue; host or cells: human liver microsomes
Experimental: as §2

CYP2C9 = biological target: T3, CYP2C9 (Homo sapiens, UniProt P11712); assay: CYP inhibition in human liver microsomes; assay type: in vitro ADME; details: read-out: CPY450 inhibition (IC50), CYP2C9
T3 construct: from tissue; host or cells: human liver microsomes
Experimental: as §2

CYP2D6 = biological target: T4, CYP2D6 (Homo sapiens, UniProt P10635); assay: CYP inhibition in human liver microsomes; assay type: in vitro ADME; details: read-out: CPY450 inhibition (IC50), CYP2D6
T4 construct: from tissue; host or cells: human liver microsomes
Experimental: as §2

CYP3A4 = CYP3A4 (Homo sapiens, UniProt P08684); assay: CYP inhibition in human liver microsomes; assay type: in vitro ADME; details: read-out: CPY450 inhibition (IC50), CYP3A4
Experimental: as §2

CYP1A2 = biological target: T5, CYP1A2 (Homo sapiens, UniProt P05177); assay: CYP inhibition in human liver microsomes; assay type: in vitro ADME; details: read-out: CPY450 inhibition (IC50), CYP1A2
T5 construct: from tissue; host or cells: human liver microsomes
Experimental: as §2

CYP2C19 = biological target: T6, CYP2C19 (Homo sapiens, UniProt P33261); assay: CYP inhibition in human liver microsomes; assay type: in vitro ADME; details: read-out: CPY450 inhibition (IC50), CYP2C19
T6 construct: from tissue; host or cells: human liver microsomes
Experimental: as §2

[3] = Brain homogenate stability; assay type: in vitro ADME
Experimental: as §1

HepG2 cells = assay: Cytotoxicity by high content screening (HCS); assay type: cell-based
Text: Based on the efficacy of DHCA/Mal-gluc in treating stress-induced depression, we initiated an in vitro toxicity and drug-like properties studies to investigate the potential of developing these two phytochemicals as novel therapies. […] At low concentrations, DHCA and Mal-gluc had no detectable effects on cell number, nuclear size, DNA structure, cell membrane permeability, mitochondrial mass, mitochondrial membrane potential or cytochrome C release in high content screening (HCS)[41] using HepG2 cells (Table 1). At high concentrations, Mal-gluc reduced cell number, increased nuclear size, […], and increased mitochondrial mass, with calculated EC50s beyond physiological concentration (Table 1).
MTT and LDH release assays were conducted in MSN-enriched primary neurons and in PBMCs[64]. Cellular cytotoxicity was conducted in HepG2 cells using high content screening (HCS) protocols. Briefly, HepG2 cells were plated on 384-well tissue culture treated black walled clear bottomed polystyrene plates and treated with varying concentrations of Mal-gluc or DHCA. The cells were loaded with the relevant dye/antibody for each cell-health marker following incubation, including cell count, markers for nuclear size, DNA structure, cell membrane permeability, mitochondrial mass, mitochondrial membrane potential and cytochrome C release. The plates were then scanned using an automated fluorescent cellular imager ArrayScanr (Thermo Scientific Cellomics).

T5 sequence (P05177 whole entry): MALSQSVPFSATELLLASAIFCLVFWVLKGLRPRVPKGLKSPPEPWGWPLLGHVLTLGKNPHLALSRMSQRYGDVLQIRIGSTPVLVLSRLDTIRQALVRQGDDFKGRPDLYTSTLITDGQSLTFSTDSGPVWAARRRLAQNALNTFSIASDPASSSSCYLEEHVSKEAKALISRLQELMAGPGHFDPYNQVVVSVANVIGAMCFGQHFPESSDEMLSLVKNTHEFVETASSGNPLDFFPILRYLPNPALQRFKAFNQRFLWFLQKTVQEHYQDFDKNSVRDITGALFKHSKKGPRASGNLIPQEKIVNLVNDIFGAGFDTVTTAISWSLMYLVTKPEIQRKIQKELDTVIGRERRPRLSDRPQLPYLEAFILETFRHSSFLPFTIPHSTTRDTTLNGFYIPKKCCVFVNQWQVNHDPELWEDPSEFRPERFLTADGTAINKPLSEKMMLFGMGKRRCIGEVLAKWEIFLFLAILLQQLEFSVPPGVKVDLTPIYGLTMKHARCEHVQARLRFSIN
T3 sequence (P11712 whole entry): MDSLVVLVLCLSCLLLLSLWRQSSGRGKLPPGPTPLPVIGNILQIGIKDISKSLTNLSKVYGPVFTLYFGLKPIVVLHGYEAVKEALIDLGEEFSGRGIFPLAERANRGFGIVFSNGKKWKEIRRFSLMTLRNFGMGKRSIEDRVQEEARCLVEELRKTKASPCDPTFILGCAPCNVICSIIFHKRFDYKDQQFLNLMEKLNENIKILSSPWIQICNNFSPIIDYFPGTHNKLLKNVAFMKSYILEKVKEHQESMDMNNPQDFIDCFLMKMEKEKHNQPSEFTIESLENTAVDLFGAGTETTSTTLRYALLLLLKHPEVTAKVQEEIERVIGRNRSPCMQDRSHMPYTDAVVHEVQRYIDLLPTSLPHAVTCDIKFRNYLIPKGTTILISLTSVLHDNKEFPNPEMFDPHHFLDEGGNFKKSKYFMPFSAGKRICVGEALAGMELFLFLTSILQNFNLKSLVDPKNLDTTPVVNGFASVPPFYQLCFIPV
T1 sequence (P20813 whole entry): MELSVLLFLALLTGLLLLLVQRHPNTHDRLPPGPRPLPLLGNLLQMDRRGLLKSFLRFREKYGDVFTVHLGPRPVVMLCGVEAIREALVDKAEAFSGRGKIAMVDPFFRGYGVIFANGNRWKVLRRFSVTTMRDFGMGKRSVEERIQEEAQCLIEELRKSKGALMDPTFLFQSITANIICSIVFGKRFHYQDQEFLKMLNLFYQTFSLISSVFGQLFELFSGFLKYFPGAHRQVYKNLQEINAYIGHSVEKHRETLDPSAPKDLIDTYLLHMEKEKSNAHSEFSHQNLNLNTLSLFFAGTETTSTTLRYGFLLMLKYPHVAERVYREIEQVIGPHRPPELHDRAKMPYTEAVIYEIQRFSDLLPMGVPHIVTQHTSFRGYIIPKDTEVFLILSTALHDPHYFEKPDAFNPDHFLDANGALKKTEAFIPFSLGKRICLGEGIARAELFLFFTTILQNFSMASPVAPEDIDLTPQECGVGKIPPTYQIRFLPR
T4 sequence (P10635 whole entry): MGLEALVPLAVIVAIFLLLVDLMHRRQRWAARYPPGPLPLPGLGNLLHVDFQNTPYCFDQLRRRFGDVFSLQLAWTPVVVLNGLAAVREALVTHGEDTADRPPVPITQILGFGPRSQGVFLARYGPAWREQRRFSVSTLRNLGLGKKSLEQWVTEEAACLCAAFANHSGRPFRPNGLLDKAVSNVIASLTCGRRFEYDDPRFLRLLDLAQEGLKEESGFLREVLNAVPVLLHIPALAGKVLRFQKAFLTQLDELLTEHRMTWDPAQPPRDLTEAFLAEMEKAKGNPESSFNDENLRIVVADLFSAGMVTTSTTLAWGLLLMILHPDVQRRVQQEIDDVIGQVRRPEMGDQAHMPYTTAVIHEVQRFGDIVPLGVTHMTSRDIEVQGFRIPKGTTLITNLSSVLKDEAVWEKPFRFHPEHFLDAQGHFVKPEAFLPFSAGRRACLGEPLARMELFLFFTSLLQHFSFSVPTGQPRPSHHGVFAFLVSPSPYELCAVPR
T6 sequence (P33261 whole entry): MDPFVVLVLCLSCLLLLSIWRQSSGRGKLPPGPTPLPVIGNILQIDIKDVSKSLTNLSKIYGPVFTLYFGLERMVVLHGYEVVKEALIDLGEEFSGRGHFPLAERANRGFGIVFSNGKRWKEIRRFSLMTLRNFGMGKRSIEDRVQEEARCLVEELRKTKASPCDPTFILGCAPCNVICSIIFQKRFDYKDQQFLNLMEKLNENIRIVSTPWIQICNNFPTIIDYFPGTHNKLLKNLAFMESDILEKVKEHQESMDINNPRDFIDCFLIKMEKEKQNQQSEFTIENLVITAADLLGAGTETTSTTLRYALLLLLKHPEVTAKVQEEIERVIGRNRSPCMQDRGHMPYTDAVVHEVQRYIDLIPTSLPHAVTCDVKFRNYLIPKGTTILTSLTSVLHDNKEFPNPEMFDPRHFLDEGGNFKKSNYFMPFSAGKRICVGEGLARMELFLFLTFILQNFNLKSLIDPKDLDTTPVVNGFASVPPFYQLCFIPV
Sequence of CYP3A4 (P08684 2-503): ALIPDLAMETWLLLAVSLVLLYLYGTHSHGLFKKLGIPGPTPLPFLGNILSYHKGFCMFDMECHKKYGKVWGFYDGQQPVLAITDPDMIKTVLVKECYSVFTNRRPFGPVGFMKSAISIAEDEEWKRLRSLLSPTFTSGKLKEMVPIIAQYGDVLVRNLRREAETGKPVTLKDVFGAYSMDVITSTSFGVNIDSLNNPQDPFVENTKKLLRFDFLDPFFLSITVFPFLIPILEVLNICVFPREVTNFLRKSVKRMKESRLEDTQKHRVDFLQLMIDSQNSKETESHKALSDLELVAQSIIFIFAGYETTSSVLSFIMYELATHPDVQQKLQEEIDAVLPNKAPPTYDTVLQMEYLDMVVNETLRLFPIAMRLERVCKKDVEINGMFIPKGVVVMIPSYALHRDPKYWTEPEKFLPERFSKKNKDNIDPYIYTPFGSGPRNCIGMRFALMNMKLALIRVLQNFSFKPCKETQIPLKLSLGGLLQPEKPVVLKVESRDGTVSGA
T2 sequence (P10632 whole entry): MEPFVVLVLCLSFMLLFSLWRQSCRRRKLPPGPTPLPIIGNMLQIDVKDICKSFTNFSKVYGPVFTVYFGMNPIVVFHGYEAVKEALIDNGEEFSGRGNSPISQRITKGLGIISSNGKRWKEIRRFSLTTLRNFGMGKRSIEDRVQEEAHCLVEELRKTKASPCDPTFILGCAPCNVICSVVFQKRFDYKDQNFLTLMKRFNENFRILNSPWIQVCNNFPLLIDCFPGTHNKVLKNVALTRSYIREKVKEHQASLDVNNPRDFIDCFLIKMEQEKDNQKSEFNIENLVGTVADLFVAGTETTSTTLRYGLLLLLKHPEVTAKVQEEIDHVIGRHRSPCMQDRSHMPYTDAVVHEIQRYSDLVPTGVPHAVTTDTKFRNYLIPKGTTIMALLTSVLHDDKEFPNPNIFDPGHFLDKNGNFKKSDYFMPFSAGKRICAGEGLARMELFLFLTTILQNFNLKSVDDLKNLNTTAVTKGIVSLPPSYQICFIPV

Row | Compound | plasma ALP, AST, ALT (liver function) and BUN (renal function) [1] | half-life ([2]; mouse, plasma) | IC50 (CYP2B6) | IC50 (CYP2C8) | IC50 (CYP2C9) | IC50 (CYP2D6) | IC50 (CYP3A4; human, pH 7.4, probe midazolam/testosterone) | IC50 (CYP1A2) | IC50 (CYP2C19) | half-life ([3]; mouse) | Plasma stability, Half-life (mouse plasma) [2] | IC50 (CYP3A4) | Brain homogenate stability, Half-life (mouse homogenate) [3] | AC50 (HepG2 cells; DHCA ↑ (NS, fit not statistically significant), NR = No response observed, read-out: Cytotoxicity by HCS (AC50), Mitochondrial membrane potential) | AC50 (HepG2 cells; DHCA ↑, NR = No response observed, read-out: Cytotoxicity by HCS (AC50), Cytochrome C release) | AC50 (HepG2 cells; Malvidin-gluc ↑, NR = No response observed, read-out: Cytotoxicity by HCS (AC50), Mitochondrial mass) | AC50 (HepG2 cells; Malvidin-gluc ↑, NR = No response observed, read-out: Cytotoxicity by HCS (AC50), Nuclear size) | AC50 (HepG2 cells; Malvidin-gluc ↓, NR = No response observed, read-out: Cytotoxicity by HCS (AC50), Cell number) | AC50 (HepG2 cells; NR = No response observed, read-out: Cytotoxicity by HCS (AC50), DNA structure) | AC50 (HepG2 cells; both ↓, read-out: Cytotoxicity by HCS (AC50), Cell membrane permeability)
1 | O=C(O)CCc1ccc(O)c(O)c1 [DHCA, 3(3,4-dihydroxy-phenyl) propionic acid] | neither phytochemical induced significant changes in any of the indexes | 44.1 min | > 25 µM | > 25 µM | > 25 µM | > 25 µM | > 25 µM | > 25 µM | > 25 µM | 16.1 min | – | – | – | – | – | – | – | – | – | –
2 | COc1cc(-c2[o+]c3cc(O)cc(O)c3cc2O[C@@H]2O[C@H](CO)[C@@H](O)[C@H](O)[C@H]2O)cc(OC)c1O [Mal-gluc] | neither phytochemical induced significant changes in any of the indexes | – | > 25 µM | > 25 µM | > 25 µM | > 25 µM | – | > 25 µM | > 25 µM | – | 201 min | > 25 µM | 29.4 min | > 200 µM | > 200 µM | 176 µM | 88.4 µM | 176 µM | > 200 µM | 52.7 µM
